According to the OligoGym collection:
Several values for one entry are separate records, joined by “and”; a condition that tells them apart may be missing. Identical values can stand only once. After the bases stand the sugars from the 5' end (letter, count) and the backbone: PS all phosphorothioate, else s phosphorothioate and o phosphodiester by linkage. Methylation of C is not given here. e = 2'-O-(2-methoxyethyl) (MOE); k = constrained ethyl (cEt); d = 2'-deoxy (DNA)

Target: IRF4
Details: ASO

| Sequence | target mRNA inhibition (SK-MEL-28, 4 µM) [%] | target mRNA inhibition (MM.1R, 1 µM) | further results |
| --- | --- | --- | --- |
| ATAGGAAGTTTACTAA (sugars k3 d10 k3, PS) | 13 |  |  |
| ATAGTAAATATCCTGT (sugars k3 d10 k3, PS) | 36 |  |  |
| ATATTCCAACAGGCGG (sugars k3 d10 k3, PS) | 53 |  |  |
| ATCAGAAATCACGAGG (sugars k3 d10 k3, PS) | 71 | 6% | target mRNA inhibition (MM.1R, 0.0625 µM): 2%; target mRNA inhibition (MM.1R, 0.074 µM): -9%; target mRNA inhibition (MM.1R, 0.222 µM): -12%; target mRNA inhibition (MM.1R, 0.25 µM): 1%; target mRNA inhibition (MM.1R, 0.666 µM): -4%; target mRNA inhibition (MM.1R, 2 µM): 9%; target mRNA inhibition (MM.1R, 4 µM): 36% |
| ATCCACAATCAGCAAG (sugars k3 d10 k3, PS) | 51 |  |  |
| ATCCACTGGCACCAAG (sugars k3 d10 k3, PS) |  | 5% |  |
| ATCTATAAGATGTATA (sugars k3 d10 k3, PS) | -1 |  |  |
| ATCTGTATCATGCATA (sugars k3 d10 k3, PS) |  | 24% |  |
| ATCTTCACTGTTAGCT (sugars k3 d10 k3, PS) | 74 |  |  |
| ATGACGACTTAAGCTA (sugars k3 d10 k3, PS) | 62 |  |  |
| ATGATGTATACCAACG (sugars k3 d10 k3, PS) | 86 |  |  |
| ATGCAAGCCCGTTAAT (sugars k3 d10 k3, PS) | 4 |  |  |
| ATGCTTGGCTCTGTGG (sugars k3 d10 k3, PS) | 76 |  |  |
| ATGGAACCCCAAAATC (sugars k3 d10 k3, PS) | 24 |  |  |
| ATGGAGATACTTGTAC (sugars k3 d10 k3, PS) | 62 |  |  |
| ATGGCAGTCTACAGAA (sugars k3 d10 k3, PS) | -2 |  |  |
| ATGGCGAGTTGGCACA (sugars k3 d10 k3, PS) |  | 49% and 48% |  |
| ATGGCGGATAGATCTG (sugars k3 d10 k3, PS) | 57 |  |  |
| ATGTAAGTGATAGGTA (sugars k3 d10 k3, PS) | 70 |  |  |
| ATGTAGGGATACAGCA (sugars k3 d10 k3, PS) | 74 |  |  |
| ATGTGATAGCTGAGCT (sugars k3 d10 k3, PS) |  | 26% |  |
| ATGTGATAGCTGAGCT (sugars kddddddddddkekek, PS) |  | -3% |  |
| ATGTGTATTACTCTTA (sugars k3 d10 k3, PS) |  | 52% and 49% |  |
| ATGTGTATTACTCTTA (sugars kkdddddddddkdkdk, PS) |  | 44% and 32% |  |
| ATGTTAGCCAATTCCT (sugars kkdddddddddekeke, PS) |  | 27% and 30% |  |
| ATGTTAGCCAATTCCT (sugars kkdddddddddkekek, PS) |  | 28% and 44% |  |

| Sequence | target mRNA inhibition (SK-MEL-28, 4 µM) [%] | target mRNA inhibition (MM.1R, 1 µM) | further results |
| --- | --- | --- | --- |
| ATTATATACTGGTTGG (sugars k2 d9 e3 k2, PS) |  | 37% |  |
| ATTCCAAACCTTAAGC (sugars k3 d10 k3, PS) |  | -1% |  |
| ATTCCGCGCGCAGAGC (sugars k3 d10 k3, PS) |  | -21% |  |
| ATTCTCCTCAACCGCT (sugars k3 d10 k3, PS) | 35 |  |  |
| ATTCTTGAATAGAGGA (sugars k3 d10 k3, PS) |  | 16% |  |
| ATTGAAATGGAGCATC (sugars k3 d10 k3, PS) | -1 |  |  |
| ATTTATAACCGGTAGA (sugars k3 d10 k3, PS) |  | 28% |  |
| ATTTATGCCCTCGCTC (sugars k3 d10 k3, PS) | 26 |  |  |
| ATTTTTTGGTTAGTCC (sugars k3 d10 k3, PS) | 53 |  |  |
| CAAAACGGACTGGAAC (sugars k3 d10 k3, PS) | 16 |  |  |
| CAAAAGGTAGTAGACC (sugars k3 d10 k3, PS) |  | 11% |  |
| CAAAAGTACCACAGGG (sugars k3 d10 k3, PS) | 40 |  |  |
| CAAAAGTGCCACAACT (sugars k3 d10 k3, PS) | 10 |  |  |
| CAAACACTAATACCTA (sugars k3 d10 k3, PS) | 31 |  |  |
| CAAACTATAATTGGCA (sugars k3 d10 k3, PS) | 53 |  |  |
| CAAAGACCAGCTTTTT (sugars k3 d10 k3, PS) | 50 |  |  |
| CAAATTAAAGAGCGCA (sugars k3 d10 k3, PS) | 57 |  |  |
| CAACTAGCAGGGCACG (sugars k3 d10 k3, PS) | 38 |  |  |
| CAAGAACTGCTGTGTG (sugars k3 d10 k3, PS) | -5 |  |  |
| CAAGACAGGTCTCTAC (sugars k3 d10 k3, PS) | 34 |  |  |
| CAAGACATAAACCAAG (sugars k3 d10 k3, PS) | 51 |  |  |
| CAAGACCTAATCTACA (sugars k3 d10 k3, PS) | 12 |  |  |
| CAAGCAGTGATGTCAG (sugars k3 d10 k3, PS) |  | 60% and 51% |  |
| CAAGCAGTGATGTCAG (sugars kddddddddddkekek, PS) |  | 35% and 43% |  |
| CAAGCTTTCATTTGGG (sugars k3 d10 k3, PS) | 74 |  |  |
| CAAGGAGGCGGGCCTT (sugars k3 d10 k3, PS) | -2 |  |  |

| Sequence | target mRNA inhibition (SK-MEL-28, 4 µM) [%] | target mRNA inhibition (MM.1R, 1 µM) | further results |
| --- | --- | --- | --- |
| CAAGGCTACAGGCACG (sugars k3 d10 k3, PS) | 51 |  |  |
| CAAGTGTCTAAAGTCC (sugars k3 d10 k3, PS) |  | 3% |  |
| CAAGTGTCTAAAGTCC (sugars kkdddddddddekeke, PS) |  | 23% and 25% |  |
| CAATAGTCTAGCTGGG (sugars k3 d10 k3, PS) | 63 |  |  |
| CAATCTTAACCTGGAG (sugars k3 d10 k3, PS) |  | 40% |  |
| CACAGGCGCGGACGCA (sugars k3 d10 k3, PS) | 14 |  |  |
| CACATCAATGTTTTAG (sugars k2 d9 e3 k2, PS) |  | 12% and 11% |  |
| CACATCAATGTTTTAG (sugars kdddddddddkekeke, PS) |  | -2% and 18% |  |
| CACATCAATGTTTTAG (sugars kkdddddddddkdkdk, PS) |  | 28% and 37% |  |
| CACATCAATGTTTTAG (sugars kkdddddddddkekek, PS) |  | 19% and 34% |  |
| CACATTTGAGAGCTAC (sugars k3 d10 k3, PS) | 74 |  |  |
| CACCAAGGTCCAGAGT (sugars k3 d10 k3, PS) | 20 |  |  |
| CACCAGGTTAAACAGG (sugars k3 d10 k3, PS) | -8 |  |  |
| CACCATTCAGACAGAT (sugars k3 d10 k3, PS) | -67 |  |  |
| CACCCCTTCTTGTGGA (sugars k3 d10 k3, PS) | 40 |  |  |
| CACCGAACACACCAGG (sugars k3 d10 k3, PS) | 20 |  |  |
| CACGAAGGGCAGTGCC (sugars k3 d10 k3, PS) | 17 |  |  |
| CACGAGGAAGCATAGA (sugars k3 d10 k3, PS) | 56 |  |  |
| CACGCAATGGCAAAAG (sugars k3 d10 k3, PS) | 19 |  |  |
| CACGGGAATTTCCATT (sugars k3 d10 k3, PS) | 71 |  |  |
| CACTAAGTGGGCTCTG (sugars k3 d10 k3, PS) | 41 |  |  |
| CACTACCTGCAGCCAA (sugars k3 d10 k3, PS) | 31 |  |  |
| CACTATTAAACAGCAC (sugars k3 d10 k3, PS) | 19 |  |  |
| CACTATTCGAGAGAAA (sugars k3 d10 k3, PS) |  | 30% |  |
| CACTCAGCAAGTGTCT (sugars k3 d10 k3, PS) | 50 |  |  |
| CACTGAGGCCTTAATG (sugars k3 d10 k3, PS) | 34 |  |  |

| Sequence | target mRNA inhibition (SK-MEL-28, 4 µM) [%] | target mRNA inhibition (MM.1R, 1 µM) | further results |
| --- | --- | --- | --- |
| CACTGCCGTGATCTGA (sugars k3 d10 k3, PS) |  | 9% |  |
| CACTGGCATCGAGACG (sugars k3 d10 k3, PS) | 61 |  |  |
| CACTGTTAAAGCAGCA (sugars k3 d10 k3, PS) | 81 |  |  |
| CAGAAAATATGTAACG (sugars k3 d10 k3, PS) | 22 |  |  |
| CAGAAGTACGAGCACA (sugars k3 d10 k3, PS) | 47 |  |  |
| CAGATGGCATGCGAAT (sugars k3 d10 k3, PS) | 35 |  |  |
| CAGATTAATAGTAAGT (sugars k3 d10 k3, PS) |  | -12% |  |
| CAGATTTACACCGTTG (sugars k3 d10 k3, PS) |  | 15% |  |
| CAGCACCGTGTGGAAA (sugars k3 d10 k3, PS) | 51 |  |  |
| CAGCTCACCGCGCTCA (sugars k3 d10 k3, PS) | 42 |  |  |
| CAGGACCCGGCTCCCG (sugars k3 d10 k3, PS) | 14 |  |  |
| CAGGTAAGGGCCCCGT (sugars k3 d10 k3, PS) | 70 |  |  |
| CAGGTTTCATTTCATT (sugars k3 d10 k3, PS) | 60 |  | target mRNA inhibition (MM.1R, 0.074 µM): -1%; target mRNA inhibition (MM.1R, 0.222 µM): 13%; target mRNA inhibition (MM.1R, 0.666 µM): 10%; target mRNA inhibition (MM.1R, 2 µM): 39%; target mRNA inhibition (SK-MEL-28, 0.185 µM): 15%; target mRNA inhibition (SK-MEL-28, 5 µM): 71%; target mRNA inhibition (SK-MEL-28, 15 µM): 91% |
| CAGTCAAAGATTCATT (sugars k3 d10 k3, PS) | 40 |  |  |
| CAGTGACTTGCATCCA (sugars kkdddddddddkekek, PS) |  | 26% |  |
| CAGTGATGTCAGGTTT (sugars e1 k2 d9 k2 e2, PS) |  | 20% |  |
| CAGTGATGTCAGGTTT (sugars k3 d9 k3 e1, PS) |  | 49% |  |
| CAGTGTGATTAATTCT (sugars k3 d10 k3, PS) |  | 17% |  |
| CAGTTGTAAATGAGTC (sugars e1 k2 d9 k2 e2, PS) |  | 55% | target mRNA inhibition (MM.1R, 0.074 µM): 12%; target mRNA inhibition (MM.1R, 0.222 µM): 34%; target mRNA inhibition (MM.1R, 0.666 µM): 51%; target mRNA inhibition (MM.1R, 2 µM): 70% |
| CAGTTTGTGAAGCATC (sugars k3 d10 k3, PS) | 78 |  |  |
| CATAAAGGACCCCGCC (sugars k3 d10 k3, PS) |  | -5% |  |
| CATAACTCAGGCAAGG (sugars k3 d10 k3, PS) | 36 |  |  |
| CATCAATGATGGCAGT (sugars k3 d10 k3, PS) | 50 |  |  |
| CATCACTGCAGTTCAC (sugars k3 d10 k3, PS) | 47 |  |  |
